Laboratory results reported in PubChem BioAssay (NCI).
Values joined by “and” are separate entries in the source; they are usually repeats but may differ in a detail not shown here. Equal values may be shown once.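 These data come from cells grown in 96-well plates and exposed to compound for 48 hours at five concentrations. Abbreviation: GI50, concentration required for 50% inhibition of growth. TGI: concentration producing complete growth inhibition.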

Experiments:
Test in all cases: inhibition of tumour cell growth, NCI panel, 48 h
[1] = tested on: ACHN renal
[2] = tested on: COLO 205 colon
[3] = tested on: HCC-2998 colon
[4] = tested on: HCT-116 colon
[5] = tested on: HOP-92 NSCLC
[6] = tested on: HT29 colon
[7] = tested on: M14 melanoma
[8] = tested on: NCI-H460 lung
[9] = tested on: OVCAR-3 ovarian
[10] = tested on: OVCAR-5 ovarian
[11] = tested on: SK-MEL-2 melanoma
[12] = tested on: SK-MEL-5 melanoma
[13] = tested on: SK-OV-3 ovarian
[14] = tested on: SNB-19 CNS
[15] = tested on: U251 CNS

| SMILES | TGI [1] | TGI [2] [µM] | TGI [3] [µM] | TGI [4] [µM] | TGI [5] [µM] | TGI [6] | TGI [7] | TGI [8] [µM] | TGI [9] | TGI [10] | TGI [11] | TGI [12] | TGI [13] [µM] | TGI [14] | TGI [15] | GI50 [4] | GI50 [8] | GI50 [10] |
| --- | --- | --- | --- | --- | --- | --- | --- | --- | --- | --- | --- | --- | --- | --- | --- | --- | --- | --- |
| COC(=O)C(CC(C)C)NC(=O)C(NC(=O)c1ccc(-c2ccc(Cl)cc2Cl)o1)C(C)C (stereo not drawn) | 85.6 µM | 52.2 | 31.7 | 29.2 | 45.9 | 42.6 µM | 65.8 µM | 34.2 | 42.2 µM | > 100 µM | 63.2 µM | 49.9 µM | > 100 | > 100 µM | 46 µM | – | – | – |
| CCOC(=O)Cc1cc(OC)c(OC)cc1/C(Cl)=C(\CO)c1ccc(OC)c(OC)c1 | > 100 µM | > 100 | – | > 100 | 98.1 | > 100 µM | > 100 µM | > 100 | > 100 µM | – | – | > 100 µM | > 100 | > 100 µM | > 100 µM | – | – | – |
| O=C(Nc1ccc([N+](=O)[O-])cc1)Nn1cnnc1 | > 100 µM | > 100 | > 100 | > 100 | > 100 | > 100 µM | > 100 µM | > 100 | 72.8 µM | > 100 µM | > 100 µM | > 100 µM | > 100 | > 100 µM | > 100 µM | – | – | – |
| CCNC(=O)C(C)C1CCC2(C)C=CC(=O)C(C)=C2C1O (stereo not drawn) | – | > 100 | > 100 | > 100 | > 100 | > 100 µM | – | > 100 | > 100 µM | > 100 µM | > 100 µM | > 100 µM | > 100 | > 100 µM | > 100 µM | – | – | – |
| Nc1nc(Nc2ccc(Cl)c(Cl)c2)nc2nc[nH]c12 | 25.2 µM | 44.3 | 27.9 | 34.1 | 33.5 | 30.6 µM | 29.8 µM | 34 | 27 µM | 75.3 µM | 39.2 µM | 27.7 µM | 31.8 | 32 µM | 36.5 µM | – | – | – |
| COc1cc(OC2OC(CO)C(O)C(O)C2O)c2c(O)c3c(=O)cc(C)oc3cc2c1 (stereo not drawn) | > 100 µM | > 100 | > 100 | > 100 | – | > 100 µM | > 100 µM | > 100 | > 100 µM | > 100 µM | > 100 µM | > 100 µM | > 100 | > 100 µM | > 100 µM | – | – | – |
| FC(F)(F)c1ccc2c(c1)N(CCCNCCN1CCOCC1)c1ccccc1S2 | 24.7 µM | 6.84 | 4.06 | 11.2 | 11.2 | 10.4 µM | 4.13 µM | 38.5 | 24.8 µM | 23.4 µM | 13.9 µM | 13.8 µM | – | 30.1 µM | 23.7 µM | – | – | – |
| OCC#CCNCl | – | > 100 | > 100 | > 100 | > 100 | > 100 µM | – | > 100 | > 100 µM | > 100 µM | > 100 µM | > 100 µM | > 100 | > 100 µM | > 100 µM | – | – | – |
| N#C/C(=C\c1ccncc1)c1csc2ccccc12 | – | 35.9 | 35.8 | 33.4 | 51.7 | 48.2 µM | – | > 69 | 42.9 µM | > 89.6 µM | 42.2 µM | 33.2 µM | > 73.1 | 69.6 µM | 61.9 µM | – | – | – |
| COc1ccccc1/C=C(/C)[N+](=O)[O-] | 4.68 µM and 5.46 µM | 10.3 | – | – | 5.72 | 12.6 µM and 9.89 µM | 25.6 µM and 2.78 µM | – | 3.15 µM and 2.68 µM | 13.4 µM and 27.3 µM | 5.01 µM and 4.64 µM | 5.1 µM and 3.59 µM | – | 15.1 µM and 5.77 µM | 4.19 µM and 3.43 µM | 5.36 µM and 2.35 µM | 4.07 µM and 1.94 µM | 2.89 µM and 6.42 µM |
